IC50 data for 24 molecules are collected here from US20260176284A1, “Compounds with Anti-KRAS Mutated Tumor Activity” (Trasveda Ltd., priority 2022, published 2026).

Each structure is given as a SMILES string. Like-named read-outs stand apart in the source and are kept apart here.

The assay deals with KRAS G12D mutated AGS human gastric adenocarcinoma cells. The assay can be described thus: Proliferation inhibition of KRAS G12D mutant AGS cells, another experiment with similar protocol (includes MRTX1133). The format is cell-based. On the procedure:
In another experiment, using a protocol similar to the one described above, the inhibitory activity of some representative compounds of the present invention against KRAS G12D mutated AGS human gastric adenocarcinoma cells was determined.
The synthesis of compound MRTX1133 was performed according to the method described in J. Med. Chem. 2022, 65, 4, 3123-3133.

For `C#Cc1c(F)ccc2cc(O)cc(-c3ncc4c(N5CC6CCC(C5)N6)nc(OC[C@]5(C)CN(C)CC[C@H]5F)nc4c3F)c12` [Example 67-3], the midpoint of inhibition (Homo sapiens), the IC50, lay at 17 nM.
Molecule `CN1CC[C@H](C(F)F)[C@](C)(COc2nc(N3C[C@H]4CC[C@@H](C3)N4)c3cc(Cl)c(-c4cccc5sc(N)c(C#N)c45)c(F)c3n2)C1` [Example 312, 4-(4-((1R,5S)-3,8-diazabicyclo[3.2.1]octan-3-yl)-6-chloro-2-(((3S,4S)-4-(difluoromethyl)-1,3-dimethylpiperidin-3-yl)methoxy)-8-fluoroquinazolin-7-yl)-2-aminobenzo[b]thiophen-3-nitrile] displayed an IC50 (Homo sapiens) of 25 nM.
Same read-out and setting: the result for `CN1CC/C(=C\F)[C@](C)(COc2nc(N3C[C@H]4CC[C@@H](C3)N4)c3cc(C(F)(F)F)c(-c4c(F)ccc5sc(N)c(C#N)c45)c(F)c3n2)C1` (single isomer, unassigned) [Example 362-1] reads 5 nM; that for `C#Cc1c(F)ccc2cc(O)cc(-c3nc(OC)c4c(N5C[C@H]6CC[C@@H](C5)N6)nc(OC[C@]5(C)CN(C)CC[C@@H]5F)nc4c3F)c12` [Example 262, 4-(4-((1R,5S)-3,8-diazabicyclo[3.2.1]octan-3-yl)-8-fluoro-2-(((3S,4S)-4-fluoro-1,3-dimethylpiperidin-3-yl)methoxy)-5-methoxypyrido[4,3-d]pyrimidin-7-yl)-5-ethynyl-6-fluoronaphthalen-2-ol], 15 nM; that for `C#Cc1c(F)ccc2cc(O)cc(-c3c(F)cc4c(N5CC6CCC(C5)N6)nc(OC[C@]5(C)CN(CC)CC[C@@H]5F)nc4c3F)c12` (atropisomer, axis not shown; (Ra)) [Example 50-1, (Ra)-4-(4-((1R,5S)-3,8-diazabicyclo[3.2.1]octan-3-yl)-2-(((35,4S)-1-ethyl-4-fluoro-3-methylpiper-idin-3-yl)methoxy)-6,8-difluoroquinazolin-7-yl)-5-ethynyl-6-fluoronaph-thalen-2-ol], 15 nM.
For the setting “Homo sapiens”, `C#Cc1c(F)ccc2cc(O)cc(-c3c(F)cc4c(N5CC6CCC(C5)N6)nc(OC[C@]5(C)CN(CC)CCC5=C)nc4c3F)c12` (atropisomer, axis not shown; (Ra)) [Example 63, (Ra)-4-(4-((1R,5S)-3,8-diazabicyclo[3.2.1]octan-3-yl)-2-(((S)-1-ethyl-3-methyl-4-methylenepiperi-din-3-yl)methoxy)-6,8-difluoroquinazolin-7-yl)-5-ethynyl-6-fluoronaph-thalen-2-ol] came in with a half-maximal inhibitory concentration (IC50) of 11 nM.
Same read-out and setting: next, `C#Cc1c(F)ccc2cc(O)cc(-c3c(F)cc4c(N5C[C@H]6CC[C@@H](C5)N6)nc(OC[C@]5(C)CN(CC)CCC56CC6)nc4c3F)c12` [Example 95, 4-(4-((1R,5S)-3,8-diazabicyclo[3.2.1]octan-3-yl)-2-(((S)-6-ethyl-4-methyl-6-azaspiro[2.5]octan-4-yl)methoxy)-6,8-difluoroquinazolin-7-yl)-5-ethynyl-6-fluoronaphthalen-2-ol]: 8 nM; `CN1CC[C@H](C(F)F)[C@](C)(COc2nc(N3C[C@H]4CC[C@@H](C3)N4)c3cc(C#N)c(-c4cccc5sc(N)c(C#N)c45)c(F)c3n2)C1` [Example 328, 7-(2-amino-3-cyanobenzo[b]thiophen-4-yl)-4-((1R,5S)-3,8-diazabicyclo[3.2.1]octan-3-yl)-2-(((3S,4S)-4-(difluoromethyl)-1,3-dimethylpiperidin-3-yl)methoxy)-8-fluoroquinazoline-6-carbonitrile]: 45 nM.
On the same count and under the same terms, the result for `C#Cc1c(F)ccc2cc(O)cc(-c3ncc4c(N5CC6CCC(C5)N6)nc(OC[C@]5(C)CN(C)CC[C@@H]5F)nc4c3F)c12` [Example 67-1] reads 77 nM.
For the molecule `CN1CC[C@H](C(F)F)[C@](C)(COc2nc(N3C[C@H]4CC[C@@H](C3)N4)c3cc(Cl)c(-c4cccc5sc(N)c(C#N)c45)c(F)c3n2)C1` [Example 312-1, (4-((1R,5S)-3,8-diazabicyclo[3.2.1]octan-3-yl)-6-chloro-2-(((3S,4S)-4-(difluoromethyl)-1,3-dimethylpiperidin-3-yl)methoxy)-8-fluoroquinazolin-7-yl)-2-aminobenzo[b]thiophene-3-carbonitrile], the IC50 is 11 nM.
`C#Cc1c(F)ccc2cc(O)cc(-c3c(F)cc4c(N5CC6CCC(C5)N6)nc(OC[C@]5(C)CN(C)CC[C@@H]5CF)nc4c3F)c12` (atropisomer, axis not shown; (Ra)) [Example 45-3]: the IC50 (Homo sapiens) came to 5 nM.
On to `[2H]C([2H])([2H])N1CC[C@H](C(F)F)[C@](C)(C([2H])([2H])Oc2nc(N3CC4CCC(C3)N4)c3cc(Cl)c(-c4cccc5sc(N)c(C#N)c45)c(F)c3n2)C1` (single isomer, unassigned) [Example 315-2], for which inhibition (Homo sapiens) was half-maximal at 13 nM (IC50).
Take `C#Cc1c(F)ccc2cc(O)cc(-c3c(F)cc4c(N5C[C@H]6CC[C@@H](C5)N6)nc(OC[C@]5(C)CN(C)CCC56CC6)nc4c3F)c12` [Example 88, 4-(4-((1R,5S)-3,8-diazabicyclo[3.2.1]octan-3-yl)-2-(((S)-4,6-dimethyl-6-azaspiro[2.5]octan-4-yl)methoxy)-6,8-difluoroquinazolin-7-yl)-5-ethynyl-6-fluoronaphthalen-2-ol]: 17 nM corresponded to half-maximal inhibition (Homo sapiens) (IC50).
Same read-out and setting: next, `CN1CC/C(=C\F)[C@](C)(COc2nc(N3CC4CCC(C3)N4)c3cc(C(F)(F)F)c(-c4cccc5sc(N)c(C#N)c45)c(F)c3n2)C1` (single isomer, unassigned) [Example 318-1]: 9 nM; `C#Cc1c(F)ccc2cc(O)cc(-c3nc(OC)c4c(N5C[C@H]6CC[C@@H](C5)N6)nc(OC[C@]5(C)CN(C)CC[C@@H]5CF)nc4c3F)c12` [Example 260, 4-(4-((1R,5S)-3,8-diazabicyclo[3.2.1]octan-3-yl)-8-fluoro-2-(((3S,4S)-4-(fluoromethyl)-1,3-dimethylpiperidin-3-yl)methoxy)-5-methoxypyrido[4,3-d]pyrimidin-7-yl)-5-ethynyl-6-fluoronaphthalen-2-ol]: 3 nM.
As to `CN1CC[C@H](CF)[C@](C)(COc2nc(N3CC4CCC(C3)N4)c3cc(F)c(-c4c(C#N)c(N)cc(Cl)c4C(F)(F)F)c(F)c3n2)C1` (single isomer, unassigned) [Example 122-1, (Ra or Sa)-2-(4-((1R,5S)-3,8-diazabicyclo[3.2.1]octan-3-yl)-6,8-difluoro-2-(((3S,4S)-4-(fluoromethyl)-1,3-dimethylpiperidin-3-yl)methoxy)quinazolin-7-yl)-6-amino-4-chloro-3-(trifluoromethyl) benzonitrile·trifluoroacetate], under “Homo sapiens”, half-maximal inhibition (IC50) was put at 34 nM.
Consider `[2H]C([2H])([2H])[C@@]1(COc2nc(N3CC4CCC(C3)N4)c3cnc(-c4cc(O)cc5ccc(F)c(C#C)c45)c(F)c3n2)CN(C)CC[C@@H]1C(F)F` (single isomer, unassigned) [Example 426, (Sa) or (Ra)-4-(4-((1R,5S)-3,8-diazabicyclo[3.2.1]octan-3-yl)-2-(((3S,4S)-4-(difluoromethyl)-1-methyl-3-(methyl-d3)piperidin-3-yl)methoxy)-8-fluoropyrido[4,3-d]pyrimidin-7-yl)-5-ethynyl-6-fluoronaphthalen-2-ol], for which the IC50 (Homo sapiens) amounted to 7 nM.
`C#Cc1c(F)ccc2cc(O)cc(-c3c(F)cc4c(N5CC6CCC(C5)N6)nc(OC[C@]5(C)CN(C6CC6)CCC5(F)F)nc4c3F)c12` (atropisomer, axis not shown; (Ra)) [Example 49, (Ra)-4-(4-((1R,5S)-3,8-diazabicyclo[3.2.1]octan-3-yl)-2-(((S)-1-cycloprop-yl-4,4-difluoro-3-methylpiperi-din-3-yl)methoxy)-6,8-difluoroquinazolin-7-yl)-5-ethynyl-6-fluoronaph-thalen-2-ol] returned an IC50 (Homo sapiens) of 386 nM.
On the same count and under the same terms, next, `C#Cc1c(F)ccc2cc(O)cc(-c3ncc4c(N5CC6CCC(C5)N6)nc(OC[C@]5(C)CN(C)CC[C@@H]5CF)nc4c3F)c12` [Example 71-2]: 8 nM; `CN1CC[C@H](C(F)F)[C@](C)(COc2nc(N3C[C@H]4CC[C@@H](C3)N4)c3cc(F)c(-c4cccc5sc(N)c(C#N)c45)c(F)c3n2)C1` [Example 190, 4-(4-((1R,5S)-3,8-diazabicyclo[3.2.1]octan-3-yl)-2-(((3S,4S)-4-(difluoromethyl)-1,3-dimethylpiperidin-3-yl)methoxy)-6,8-difluoroquinazolin-7-yl)-2-aminobenzo[b]thiophene-3-nitrile]: 47 nM; `C#Cc1c(F)ccc2cc(O)cc(-c3nc(OC)c4c(N5C[C@H]6CC[C@@H](C5)N6)nc(OC[C@]5(C)CN(C)CC[C@H]5F)nc4c3F)c12` [Example 263, 4-(4-((1R,5S)-3,8-diazabicyclo[3.2.1]octan-3-yl)-8-fluoro-2-(((3S,4R)-4-fluoro-1,3-dimethylpiperidin-3-yl)methoxy)-5-methoxypyrido[4,3-d]pyrimidin-7-yl)-5-ethynyl-6-fluoronaphthalen-2-ol]: 12 nM.
Same read-out and setting: the result for `C#Cc1c(F)ccc2cc(O)cc(-c3c(F)cc4c(N5CC6CCC(C5)N6)nc(OC[C@]5(C)CN(CC)CC[C@H]5F)nc4c3F)c12` (atropisomer, axis not shown; (Ra)) [Example 50-3, (Ra)-4-(4-((1R,5S)-3,8-diazabicyclo[3.2.1]octan-3-yl)-2-(((35,4R)-1-ethyl-4-fluoro-3-methylpiperi-din-3-yl)methoxy)-6,8-difluoroquinazolin-7-yl)-5-ethynyl-6-fluoronaph-thalen-2-ol] reads 7 nM; that for `CN1CC/C(=C\F)[C@](C)(COc2nc(N3CC4CCC(C3)N4)c3cc(F)c(-c4cccc5sc(N)c(C#N)c45)c(F)c3n2)C1` [Example 194], 97 nM; that for `CN1CCC(F)(F)[C@](C)(COc2nc(N3CC4CCC(C3)N4)c3cc(F)c(-c4cc(O)cc(Cl)c4C4CC4)c(F)c3n2)C1` [Example 29-1A, 3-(4-((1R,5S)-3,8-diazabicyclo[3.2.1]octane-3-yl)-2-(((S)-4,4-difluoro-1,3-dimethylpiperidin-3-yl)methoxy)-6,8-difluoroquinolin-7-yl)-5-chloro-4-cyclopropylphenol·diformate], 630 nM.
